Experiments:
[1] = Tissue distribution of AP and APM in mice; type: in vivo
Description: Control and ABX rats were orally administered a single dose of AP at 120 mg/kg. Control, ABX and germ-free C57BL/6J mice were orally administered a single dose of AP at 100 mg/kg. After 90 min of AP administration, all animals were euthanized, and blood and tissue samples were collected for subsequent analysis.
After 360 min of AP treatment, all mice were euthanized, and tissue samples were collected for subsequent analysis. […]
(§1) An ACQUITY^TM UPLC-MS/MS system equipped with an ACQUITY^TM UPLC BEH C18 Column (50 × 2.1 mm I.D., 1.7 μm, Waters, Milford, MA, USA) was utilized for the quantification of AP and APM as previously described.[47] Briefly, the detection samples (50 μL) were mixed with 50 μL of IS (50 ng/mL). AP and APM were extracted by 400 μL cold methanol. Supernatants were dried under nitrogen stream. Then, the residue was dissolved with 50% methanol in water, centrifuged for 30 min at 13,000 rpm, and 10 µL of the supernatant was subjected to UPLC-MS/MS analysis. The mobile phases consisted of eluent A (water) and eluent B (methanol) with a gradient elution as follows: 0–0.8 min, 10% B; 0.8–1.2 min, 10–90% B; 1.2–5.0 min, 90% B; 5.0–5.5 min, 90–10% B; 5.5–7.0 min, 10% B. The flow rate was 0.3 mL/min and the injection volume of all samples was 10 μL. The quantification of AP, APM and IS was performed by UPLC-MS/MS using an MRM method with the transitions of m/z 349.1→m/z 287.2 for AP, m/z 413.2→m/z 287.2 for APM, m/z 269→m/z 133 for IS.
AP was administered intravenously and orally to detect the production of the C-sulfonate metabolite APM. In tissue distribution experiment, rats were given AP intravenously (24 mg/kg) or orally (120 mg/kg), while mice received AP intravenously (20 mg/kg) or orally (100 mg/kg). After a 90-minute interval, the animals were sacrificed, and their liver, kidneys, small intestine, and colon were collected for analysis. In pharmacokinetic studies, rats were administered 24 mg/kg of AP intravenously or 120 mg/kg of AP by oral gavage. Blood samples were collected at predetermined time intervals (0, 5, 10, 20, 30, 40, 60, 90, 120, 180, 240, 360, and 480 min), as described, to detect the content of AP and APM by UPLC-MS/MS.

[2] = Plasma pharmacokinetics of AP after oral administration in mice; type: in vivo; settings: for Fr (%) relative oral bioavailability / AUC(0-inf) / AUC(0-t) / Cmax / Tmax / half-life: AP 100 mg/kg oral gavage; for AUC(0-inf) / AUC(0-t) / Cmax / Tmax / half-life: mouse, plasma, po, 100 mg/kg, mean ± SD
Description: Mice were orally administered APS reductase inhibitor bromocriptine mesylate (20 mg/kg, p.o.) or Na2SO4 (200 mg/kg, p.o.) or saline solution 1 week prior to AP treatment (a single dose of AP at 100 mg/kg, p.o.). Blood samples (50 μL) were collected at predetermined time points (0, 10, 20, 40, 60, 90, 120, 240, 360 min). In specific cases, mice were orally administrated with D. piger suspension (0.2 mL, 1 × 10^9 CFU/mL) or saline solution by oral gavage for 2 weeks before AP treatment (a single dose of AP at 100 mg/kg, p.o.).
The pharmacokinetic parameters of AP including peak time (Tmax), maximum concentration (Cmax), area under the curve from zero time to the last time point measured (AUC0-t), area under the curve from zero time to infinity (AUC0-∞), and elimination half-life (t1/2) were estimated using DAS 2.0 software (Shanghai, China). The relative oral bioavailability (Fr) of AP was calculated by the following equation: Fr(%)=AUC0−∞of ABX/Inhibitor/SO42−/D.piger/AUC0−∞of Control×100%
as §1

SULTs = test: AP incubation with liver S9 fraction (SULT-mediated metabolism); type: in vitro ADME, human, rat, mouse; settings: HLS9, RLS9, MLS9 with PAPS, 37°C
Description: A sulfonate reaction system and incubation procedures were followed those of a previous study^4. Briefly, the reaction mixture (total volume 200 μL) consists of 10 μL enzymes (MLS9, RLS9 and HLS9 at different concentrations), 5 μL magnesium chloride (1 mM), 5 μL 3’-phosphoadenosine-5’-phosphosulfate (PAPS, 0.05 mM), 178 μL potassium phosphate (KPI) buffer (44.5 mM, pH 7.4) and 2 μL AP at different concentrations. The mixture was prepared in triplicates and incubated in a shaking water bath at 37°C for various durations. The reactions were terminated by the addition of acetonitrile solution.

[3] = tested on: NF-κB and JNK/MAPK pathways; test: RNA sequencing of liver: NF-κB and JNK/MAPK pathway genes; type: in vivo, mice; settings: ANIT+AP (200 mg/kg, i.p.) vs ANIT
Description: RNA in liver tissue was isolated from mice treated with ANIT and ANIT+AP (200 mg/kg, i.p.) and purified by TRIzol (Invitrogen, CA). The isolated RNA was quantified using Qubit 2.0 (Thermo Fisher Scientific, USA) following the manufacturer’s protocol. Libraries were prepared using the NEBNext® UltraTM RNA Library Prep Kit for Illumina® (NEB, USA) and sequenced on a Novaseq 6000 (Illumina, USA) at Novogene’s deep sequencing facility. Mapped reads from each sample were assembled using StringTie (v1.3.3b) in a reference-based approach, and featureCounts was used to quantify mapped reads. Differential expression analysis of two conditions/groups was performed using the DESeq2 R package (1.20.0).

[4] = mice, Control group (Table 3), n = 10
[5] = mice, Control group (Table 4), n = 12
[6] = mice, D. piger group (D. piger suspension by gavage 2 weeks before), n = 12
[7] = mice, Inhibitor group (bromocriptine mesylate 20 mg/kg p.o. 1 week before), n = 10
[8] = mice, SO4^2- group (Na2SO4 200 mg/kg p.o. 1 week before), n = 10

For `C=C1CC[C@@H]2[C@](C)(CO)[C@H](O)CC[C@@]2(C)[C@@H]1C/C=C1/C(=O)OC[C@H]1O` [AP, Andrographolide], the “concentration of AP in tissues” value ([1]; ABX-treated mice vs Control, AP 100 mg/kg oral) was “notably increased”, the “C-sulfonate metabolism of AP” value ([1]; germ-free mice, AP 100 mg/kg oral) was “suppressed” and the “AP concentration in tissues such as the liver” value ([1]; mice colonized with D. piger vs Control, AP 100 mg/kg p.o.) was “notable reduction”. The “concentration of AP in the intestine and liver” value ([1]; mice of pharmacological experiment, AP 200 mg/kg, following ABX treatment vs Control) was “significantly increased”, the “AP levels in mouse tissues” value ([1]; mice, AP 100 mg/kg p.o., Na2SO4 pre-treatment vs Control) was “decreased AP levels” and the “AP levels in mouse tissues” value ([1]; mice, AP 100 mg/kg p.o., bromocriptine mesylate pre-treatment vs Control) was “elevated AP levels”. For the same molecule, the “AP exposure within the small intestine and liver” value ([1]; mice, AP 200 mg/kg p.o. with APS reductase inhibitor vs without) was “increase in AP exposure”, the “reduction in AP bioavailability” value ([2]; mice colonized with D. piger) was 60.11% and the “Fr (%) relative oral bioavailability” value ([2]; mice, D. piger group vs Control (AUC0-∞ ratio)) was 39.89%. For the same molecule, the “Fr (%) relative oral bioavailability” value ([2]; mice, Inhibitor group vs Control (AUC0-∞ ratio)) was 147.48%, the “Fr (%) relative oral bioavailability” value ([2]; mice, SO4^2- group vs Control (AUC0-∞ ratio)) was 29.42% and the “increase in AP bioavailability” value ([2]; mice, inhibition of APS reductase by bromocriptine mesylate) was 47.48%. For the same molecule, the “reduction in AP bioavailability” value ([2]; mice, treatment of Na2SO4) was 70.58%, the AUC(0-inf) [2, 4] was 772 ng·h/mL and the AUC(0-t) [2, 4] was 646 ng·h/mL. The Cmax [2, 4] was 500 ± 330 ng/mL, the Tmax [2, 4] was 32 min and the half-life [2, 4] was 146 ± 67.4 min. The AUC(0-inf) [2, 5] was 1030 ng·h/mL, the AUC(0-t) [2, 5] was 909 ng·h/mL and the Cmax [2, 5] was 760 ± 440 ng/mL. It also gave a Tmax [2, 5] of 41.7 min, a half-life [2, 5] of 136 ± 65.2 min and an AUC(0-inf) [2, 6] of 411 ng·h/mL. The AUC(0-t) [2, 6] was 374 ng·h/mL, the Cmax [2, 6] was 360 ± 280 ng/mL and the Tmax [2, 6] was 35 min. The half-life [2, 6] was 77.2 ± 38.6 min, the AUC(0-inf) [2, 7] was 1140 ng·h/mL and the AUC(0-t) [2, 7] was 906 ng·h/mL. It also gave a Cmax [2, 7] of 970 ± 370 ng/mL, a Tmax [2, 7] of 27 min and a half-life [2, 7] of 146 ± 86.4 min. It also gave an AUC(0-inf) [2, 8] of 227 ng·h/mL, an AUC(0-t) [2, 8] of 199 ng·h/mL and a Cmax [2, 8] of 142 ± 30 ng/mL. The Tmax [2, 8] was 17 min, the half-life [2, 8] was 133 ± 104 min and the “production of the metabolite APM in SULT-mediated metabolism incubation system” value (SULTs) was “absence of detectable production”. The “clustering of NF-κB pathway genes and JNK/MAPK pathway genes” value [3] was “no significant differences”.

Source: paper PMC11404609, “Gut microbiota-mediated C-sulfonate metabolism impairs the bioavailability and anti-cholestatic efficacy of andrographolide” (Gut Microbes, 2024)
